Legend:
Assay type in all cases: cell-based
Raji [1] = test: Inhibition of 12-O-tetradecanoylphorbol-13-acetate induced EBV-early antigen activation in human Raji cells; conditions: human gammaherpesvirus 4
Raji [2] = test: Inhibition of 12-O-tetradecanoylphorbol-13-acetate induced EBV-early antigen activation in human Raji cells at 100 molar ratio relative to control; design: scale not given: the % may be the effect or the level left; conditions: human gammaherpesvirus 4
Raji [3] = test: Inhibition of 12-O-tetradecanoylphorbol-13-acetate induced EBV-early antigen activation in human Raji cells at 1000 molar ratio relative to control; design: scale not given: the % may be the effect or the level left; conditions: human gammaherpesvirus 4
Raji [4] = test: Inhibition of 12-O-tetradecanoylphorbol-13-acetate induced EBV-early antigen activation in human Raji cells at 500 molar ratio relative to control; design: scale not given: the % may be the effect or the level left; conditions: human gammaherpesvirus 4
[5] = Cytotoxicity against human Raji cells assessed as cell viability at 1000 molar ratio; conditions: read-out: Activity
Raji [6] = test: Inhibition of 12-O-tetradecanoylphorbol-13-acetate induced EBV-early antigen activation in human Raji cells at 10 molar ratio relative to control; design: scale not given: the % may be the effect or the level left; conditions: human gammaherpesvirus 4

Row | Compound | logIC50 (Raji [1]) | Activity (Raji [2]) | Activity (Raji [3]) | Activity (Raji [4]) | viability at 1000 molar ratio [5] | Activity (Raji [6])
1 | COc1cc2c(c(O)c1OC)C(=O)c1c(cc(C)c(O)c1OC)C2=O | 2.73 |  |  |  |  | 
2 | COc1cc(O)c2c(c1)C(=O)c1cc(C)cc(O)c1C2=O [PHYSCION] | 2.5 | 51.1% | 1.5% | 24.7% | 60% | 94.2%
3 | Cc1cc2c(c(O)c1-c1c(C)cc3c(c1O)C(=O)c1c(O)cccc1C3=O)C(=O)c1c(O)cccc1C2=O | 2.86 |  |  |  |  | 
4 | CC(=O)Oc1cc(O)cc2c1C(=O)c1c(O)cc(C)cc1C2=O | 2.69 |  |  |  |  | 
5 | COc1cc(O)c2c(c1)C(=O)c1cc(C)cc(OC)c1C2=O | 2.43 | 45.3% | 0% | 21.3% | 60% | 91.8%
6 | Cc1cc2c(c(O)c1-c1c(C)cc3c(c1O)C(=O)c1c(O)cc(O)cc1C3=O)C(=O)c1c(O)cc(O)cc1C2=O | 2.7 |  |  |  |  | 
7 | Cc1cc(O)c2c(c1)C(=O)c1cc(O)cc(O)c1C2=O [EMODIN] | 2.48 | 51.6% | 1.5% | 24.8% | 70% | 91%
8 | Cc1ccc2c(c1)C(=O)c1ccccc1C2=O | 2.66 |  |  |  |  | 
9 | Cc1cc2c(c(O)c1-c1c(C)cc3c(c1O)C(=O)c1c(O)cc(O)cc1C3=O)C(=O)c1c(O)cccc1C2=O | 2.8 |  |  |  |  | 
10 | O=C1c2cccc(O)c2C(=O)c2c(O)cc(CO)cc21 | 2.66 |  |  |  |  | 
11 | O=C1c2cccc(O)c2C(=O)c2c(O)cccc21 | 2.78 |  |  |  |  | 
12 | COc1cc(OC)c2c(c1)C(=O)c1cc(C)cc(OC)c1C2=O | 2.41 | 44% | 0% | 21.1% | 60% | 90.1%
13 | COc1cc(C)cc2c1C(=O)c1c(OC)cc(O)cc1C2=O | 2.45 | 47.3% | 0% | 22% | 60% | 92.6%
14 | COc1cc(C)cc2c1C(=O)c1c(O)cc(O)cc1C2=O [1-O-METHYLEMODIN] | 2.49 | 49.8% | 1.1% | 24.1% | 60% | 94.1%
15 | COc1cc(O)cc2c1C(=O)c1c(O)cc(C)cc1C2=O [QUESTIN] | 2.52 | 52.8% | 3.7% | 25.6% | 60% | 95.6%
16 | CC(=O)Oc1cc(OC(C)=O)c2c(c1)C(=O)c1cc(C)cc(OC(C)=O)c1C2=O | 2.67 |  |  |  |  | 
17 | CC(=O)Oc1cc(OC(C)=O)c2c(c1)C(=O)c1cc(C(=O)O)cc(OC(C)=O)c1C2=O | 2.66 |  |  |  |  | 

Row | Compound | logIC50 (Raji [1]) | Activity (Raji [2]) | Activity (Raji [3]) | Activity (Raji [4]) | viability at 1000 molar ratio [5] | Activity (Raji [6])
18 | COc1c(O)c(C)cc2c1C(=O)c1c(O)cccc1C2=O [OBTUSIFOLIN] | 2.55 | 54.9% | 4.3% | 27.8% | 60% | 98.7%
19 | Cc1ccc2c(c1O)C(=O)c1ccccc1C2=O | 2.72 |  |  |  |  | 
20 | O=C1c2ccc(O)cc2C(=O)c2ccc(O)cc21 | 2.88 |  |  |  |  | 
21 | CCc1ccc2c(c1)C(=O)c1ccccc1C2=O | 2.7 |  |  |  |  | 
22 | Cc1cc(O)c2c(c1)C(=O)c1cc(CO)c(-c3c(O)cc4c(c3O)C(=O)c3c(O)cccc3C4=O)c(O)c1C2=O | 2.8 |  |  |  |  | 
23 | COc1cc(OC)c2c(c1)C(=O)c1cc(C)cc(O)c1C2=O | 2.5 | 51.7% | 2.9% | 24.2% | 60% | 94.7%
24 | O=C1c2ccccc2C(=O)c2c(O)cccc21 | 2.77 |  |  |  |  | 
25 | COc1cc2c(c(OC)c1O)C(=O)c1c(ccc(C)c1O)C2=O | 2.55 |  |  |  |  | 
26 | CC(=O)Oc1cc(C)cc2c1C(=O)c1c(OC(C)=O)cc(O)cc1C2=O | 2.7 |  |  |  |  | 
27 | COc1cc(C)cc2c1C(=O)c1c(O)cccc1C2=O | 2.82 |  |  |  |  | 
28 | COc1cc2c(c(O)c1C)C(=O)c1c(O)cc(C)cc1C2=O | 2.48 | 50% | 1.2% | 23.2% | 60% | 93%
29 | O=C1c2cccc(O)c2C(=O)c2c1cc(CO)c(-c1c(CO)cc3c(c1O)C(=O)c1c(O)cccc1C3=O)c2O | 2.78 |  |  |  |  | 
30 | COc1cc2c(c(OC)c1OC)C(=O)c1c(cc(C)c(O)c1OC)C2=O | 2.73 |  |  |  |  | 
31 | COc1c(O)cc2c(c1O)C(=O)c1c(cc(C)c(O)c1OC)C2=O | 2.72 |  |  |  |  | 
32 | Cc1cc(O)c2c(c1)C(=O)c1cc(O)c(-c3c(C)cc4c(c3O)C(=O)c3c(O)cccc3C4=O)c(O)c1C2=O | 2.83 |  |  |  |  | 
33 | O=C1c2ccccc2C(=O)c2ccccc21 | 3.04 |  |  |  |  | 
34 | Cc1cc(O)c2c(c1)C(=O)c1cccc(O)c1C2=O | 2.68 |  |  |  |  | 
